# Source: US9029553B2, “2-anilino nicotinyl linked 2-amino benzothiazole conjugates and process for the preparation thereof” (Council of Scientific & Industrial Research, priority 2011, dated 2015)
# What was measured:
# [1] = test system: normal monkey kidney CV-1 cells; test: MTT cytotoxicity in normal cells; format: cell-based; settings: Primates
# Experimental: These compounds were also evaluated for their cytotoxic potential in normal cells and for these purpose their IC50 value were also determine in normal monkey kidney CV-1 cells by using MTT method. The ratios of normal to cancer cells IC50 value were ranges from 10-1000 times (Table 5).
# SiHa [2] = test: MTT inhibition of cell proliferation; format: cell-based; settings: Homo sapiens, 48 h
# Source text: (§1) In order to determine the mode of action of cell death in cancer cells, first we explored the cytotoxic potential of different structural analogs of benzothiazoles on different human cancer cell lines. […] These compounds have limited or no cytotoxicity to cervical cancer SiHa, HeLa cells, breast cancer MCF-7 cells and colon cancer HCT-15 cells.
# HL-60 = test: MTT inhibition of cell proliferation; format: cell-based; settings: Homo sapiens, 48 h
# Source text: as §1
# MCF-7 [3] = test: MTT inhibition of cell proliferation; format: cell-based; settings: Homo sapiens, MCF7, 48 h
# Source text: as §1
# Hela [4] = test: MTT inhibition of cell proliferation; format: cell-based; settings: Homo sapiens, 48 h
# Source text: as §1
# HCT-15 [5] = test: MTT inhibition of cell proliferation; format: cell-based; settings: Homo sapiens, 48 h
# Source text: as §1
# survivin = test: Western blot of cell death targets; format: cell-based, human; settings: 1 μM, 24 h, HL-60
# Experimental: Apoptosis was further characterized by the western blot analysis. Cells were treated with tested compounds at 1 μM for 24 h and expression of key apoptotic proteins like NF-kB, survivin; PARP, Bcl-2 and HSP-90 were analyzed through western blot. Both NF-kB and survivin are highly expressed in HL-60 cells. NF-kB is a transcriptional factor regulating the expression of several genes in the cells whereas survivin is a cell cycle regulated inhibitor of apoptosis protein (IAP), mostly over expressed in most of the tumors.
# PC-3 = test: SRB percentage growth inhibition (NCI protocol); format: cell-based; settings: Homo sapiens, 48 hrs exposure
# Experimental: (§2) 2-Anilino nicotinyl linked 2-amino benzothiazoles conjugates of formula 4-8 have been tested against ten and eleven human cancer cell lines for 10 and 1 μM respectively derived from nine cancer types (leukemia, non-small cell lung cancer, colon cancer, CNS cancer, melanoma, ovarian cancer, renal cancer, prostate cancer and breast cancer) as per NCI protocol. For each compound, percentage of growth inhibition was calculated for individual cell lines at a minimum of two concentrations (1 and 10 μM). A protocol of 48 hrs continuous drug exposure was used, and a sulforhodamine B (SRB) protein assay was used to estimate cell viability or growth. The percentage of growth inhibition compared with the control was calculated in table 1 and table 2.
# SiHa [6] = test: SRB percentage growth inhibition (NCI protocol); format: cell-based; settings: Homo sapiens, 48 hrs exposure
# Experimental: as §2
# 502713 = test: SRB percentage growth inhibition (NCI protocol); format: cell-based; settings: Homo sapiens, 48 hrs exposure
# Experimental: as §2
# MCF-7 [7] = test: SRB percentage growth inhibition (NCI protocol); format: cell-based; settings: Homo sapiens, MCF7, 48 hrs exposure
# Experimental: as §2
# OVCAR-5 = test: SRB percentage growth inhibition (NCI protocol); format: cell-based; settings: Homo sapiens, 48 hrs exposure
# Experimental: as §2
# HEP-2 = test: SRB percentage growth inhibition (NCI protocol); format: cell-based; settings: Homo sapiens, 48 hrs exposure
# Experimental: as §2
# A549 = test: SRB percentage growth inhibition (NCI protocol); format: cell-based; settings: Homo sapiens, 48 hrs exposure
# Experimental: as §2
# Hela [8] = test: SRB percentage growth inhibition (NCI protocol); format: cell-based; settings: Homo sapiens, 48 hrs exposure
# Experimental: as §2
# IMR-32 = test: SRB percentage growth inhibition (NCI protocol); format: cell-based; settings: Homo sapiens, 48 hrs exposure
# Experimental: as §2
# IGR-OV-1 = test: SRB percentage growth inhibition (NCI protocol); format: cell-based; settings: Homo sapiens, IGROV-1, 48 hrs exposure
# Experimental: as §2
# Sw-620 = test: SRB percentage growth inhibition (NCI protocol); format: cell-based; settings: Homo sapiens, 48 hrs exposure
# Experimental: as §2
# HCT-15 [9] = test: SRB percentage growth inhibition (NCI protocol); format: cell-based; settings: Homo sapiens, 48 hrs exposure
# Experimental: as §2
# DU145 = test: SRB percentage growth inhibition (NCI protocol); format: cell-based; settings: Homo sapiens, DU-145, 48 hrs exposure
# Experimental: as §2
# SK-NS-H = test: SRB percentage growth inhibition (NCI protocol); format: cell-based; settings: Homo sapiens, SK-N-SH, 48 hrs exposure
# Experimental: as §2
# [10] = test system: Ehrlich Ascites Carcinoma (EAC); test: In vivo anticancer activity, Ehrlich ascites carcinoma; set-up: species or system Swiss mice; settings: for No. of deaths / toxicity to animals: EAC mice
# Experimental: Model: Ehrlich Ascites Carcinoma (EAC)
# Ehrlich ascites carcinoma (EAC) cells were collected from the peritoneal cavity of the swiss mice harbouring 8-10 days old ascitic tumor. 1×10^7 EAC cells were injected intraperitoneally in Swiss mice selected for the experiment on day 0. The next day, animals were randomized and divided into different groups. The treatment groups contained 7 animals each and control group contained 10 animals. Treatment groups were treated with different doses of test substances intraperitoneally from day 1-9. One of the treatment group received 5-fluorouracil (20 mg/kg, i.p) and it served as positive control. The tumor bearing control group was similarly administered normal saline (0.2 ml, i.p.). On day 12, animals were sacrificed and ascitic fluid was collected from peritoneal cavity of each mouse for the evaluation of tumor growth. Percent tumor growth inhibition was calculated based on the total number of tumor cells present in the peritoneal cavity as on day 12 of the experiment using the following formula.
# HL-60 cells [11] = test: Flow cytometric analysis of reactive oxygen species (DCFH-DA); format: cell-based, human; settings: 1 μM, 24 h, HL-60, compared to control
# Experimental: It was clear that these compounds were cytotoxic and induce apoptosis in HL-60 cells, now we have to found out the early events which were responsible for the induction of apoptosis like reactive oxygen species (ROS) or nitric oxide (NO) generation. Intracellular peroxide (ROS) in the cells was measured by DCFH-DA by using flow cytometry. Cells were incubated with tested compounds at 1 μM for 24 h in HL-60 cells and analyzed by flow cytometry after double staining with DCFH-DA (FIG. 7). Cells were analyzed for fluorescence intensity in FL1 vs. cell count. There was hardly any DCF fluorescence (ROS positive cells) in the untreated HL-60 cells, and this status remained unchanged when cells were incubated for 24 hr with compounds 7 and 8. […] Compounds 4 and 6 also induce the generation of peroxide in HL-60 cells (31 and 16% increase, respectively).
# HL-60 cells [12] = test: Cell cycle analysis (FACS) by flow cytometry; format: cell-based, human; settings: 1 μM, up to 24 h
# Source text: The damage was more apparent with compound 8 and 6 (90% and 60% DNA damaged, respectively).
structure (smiles),measurement,setting,value
"O=C(Nc1nc2ccc([N+](=O)[O-])cc2s1)c1cccnc1Nc1ccc(F)cc1 [Compound 6, N3-(6-nitro-1,3-benzothiazol-2-yl)-2-(4-fluoroanilino)nicotinamide]",IC50,[1],15 µM
same,IC50,SiHa [2],7 µM
same,IC50,HL-60,0.3 µM
same,IC50,MCF-7 [3],> 100 µM
same,IC50,Hela [4],8 µM
same,IC50,HCT-15 [5],> 100 µM
same,survivin level (western blot),survivin,highest inhibition potential
same,inhibition at 1 µM,PC-3,26%
same,inhibition at 10 µM,SiHa [6],23%
same,inhibition at 10 µM,502713,66%
same,inhibition at 1 µM,MCF-7 [7],39%
same,inhibition at 1 µM,OVCAR-5; 1 μM,27%
same,inhibition at 10 µM,OVCAR-5; 10 μM,53%
same,inhibition at 1 µM,HEP-2; 1 μM,53%
same,inhibition at 10 µM,HEP-2; 10 μM,52%
same,inhibition at 1 µM,A549; 1 μM,27%
same,inhibition at 10 µM,A549; 10 μM,18%
same,inhibition at 1 µM,Hela [8],40%
same,inhibition at 1 µM,IMR-32; 1 μM,31%
same,inhibition at 10 µM,IMR-32; 10 μM,33%
same,inhibition at 1 µM,IGR-OV-1,25%
same,inhibition at 1 µM,Sw-620; 1 μM,9%
same,inhibition at 10 µM,Sw-620; 10 μM,67%
same,inhibition at 1 µM,HCT-15 [9]; 1 μM,22%
same,inhibition at 10 µM,HCT-15 [9]; 10 μM,55%
same,inhibition at 1 µM,DU145; 1 μM,31%
same,inhibition at 10 µM,DU145; 10 μM,51%
same,inhibition at 10 µM,SK-NS-H,63%
same,Growth Inhibition (%),"[10]; 20 mg/Kg i.p. day 1-9, read day 12",22.18%
same,No. of deaths / toxicity to animals,[10]; 20 mg/Kg i.p.,0/7
same,Growth Inhibition (%),"[10]; 30 mg/Kg i.p. day 1-9, read day 12",43.11%
same,No. of deaths / toxicity to animals,[10]; 30 mg/Kg i.p.,0/7
same,Growth Inhibition (%),"[10]; 40 mg/Kg i.p. day 1-9, read day 12",68.11%
same,No. of deaths / toxicity to animals,[10]; 40 mg/Kg i.p.,4/7 and considerable toxicity
same,No. of deaths / toxicity to animals,"[10]; 40 mg/Kg i.p., listed as Comp 6",4/7
same,increase in DCF positive cell population (ROS),HL-60 cells [11],16%
same,DNA damaged (sub-G0 fraction),HL-60 cells [12],60%
